Numbers after ± are expanded uncertainties.
Details: Gas, isochoric method

FCC(F)(F)F [1,1,1,2-tetrafluoroethane]
Details	molar volume [m3/mol]
253.09 K, 107.6 kPa	0.01875 ± 0.00016
272.92 K, 158.9 kPa	0.01358 ± 0.00016
282.69 K, 329.1 kPa	0.006516 ± 0.00016
282.8 K, 121.4 kPa	0.01878 ± 0.00016
292.87 K, 171.9 kPa	0.0136 ± 0.00016
292.89 K, 126.2 kPa	0.01878 ± 0.00016
302.58 K, 357.7 kPa	0.006522 ± 0.00016
313.1 K, 135.4 kPa	0.0188 ± 0.00016
313.1 K, 184.9 kPa	0.01361 ± 0.00016
323.07 K, 386.5 kPa	0.006528 ± 0.00016
333.03 K, 144.3 kPa	0.01882 ± 0.00016
333.03 K, 1610.8 kPa	0.001248 ± 0.00016
333.05 K, 197.5 kPa	0.01362 ± 0.00016
342.96 K, 413.7 kPa	0.006533 ± 0.00016
343 K, 1706.9 kPa	0.001248 ± 0.00016
352.93 K, 153.2 kPa	0.01883 ± 0.00016
352.94 K, 1798.6 kPa	0.001249 ± 0.00016
353.04 K, 210 kPa	0.01363 ± 0.00016
362.89 K, 440.7 kPa	0.006539 ± 0.00016
362.9 K, 1888.6 kPa	0.001249 ± 0.00016
372.82 K, 454 kPa	0.006542 ± 0.00016
372.84 K, 162.1 kPa	0.01885 ± 0.00016
372.87 K, 1976.6 kPa	0.00125 ± 0.00016
372.99 K, 222.4 kPa	0.01364 ± 0.00016

C=C(F)C(F)(F)F [2,3,3,3-tetrafluoro-1-propene]
Details	molar volume [m3/mol]
243.07 K, 98 kPa	0.01911 ± 0.00016
243.08 K, 84.5 kPa	0.02278 ± 0.00016
248.02 K, 86.5 kPa	0.02278 ± 0.00016
249.15 K, 87 kPa	0.02278 ± 0.00016
253.01 K, 105.1 kPa	0.01912 ± 0.00016
253.07 K, 88.5 kPa	0.02278 ± 0.00016
258.03 K, 90.4 kPa	0.02279 ± 0.00016
262.93 K, 171.7 kPa	0.01189 ± 0.00016
262.97 K, 109.8 kPa	0.01913 ± 0.00016
263.08 K, 92.4 kPa	0.02279 ± 0.00016
267.98 K, 94.2 kPa	0.0228 ± 0.00016
272.84 K, 179.3 kPa	0.01189 ± 0.00016
272.92 K, 114.4 kPa	0.01914 ± 0.00016
273.04 K, 96.2 kPa	0.0228 ± 0.00016
277.99 K, 98 kPa	0.02281 ± 0.00016
282.62 K, 118.8 kPa	0.01914 ± 0.00016
282.68 K, 186.6 kPa	0.0119 ± 0.00016
282.75 K, 430.2 kPa	0.004676 ± 0.00016
282.95 K, 99.9 kPa	0.02281 ± 0.00016
283 K, 394.6 kPa	0.005292 ± 0.00016
287.79 K, 101.7 kPa	0.02282 ± 0.00016
287.93 K, 447.1 kPa	0.004677 ± 0.00016
287.99 K, 403.8 kPa	0.005293 ± 0.00016
292.58 K, 193.9 kPa	0.0119 ± 0.00016
292.76 K, 103.6 kPa	0.02282 ± 0.00016
292.81 K, 457.2 kPa	0.004678 ± 0.00016
292.95 K, 412.8 kPa	0.005295 ± 0.00016
292.99 K, 123.5 kPa	0.01915 ± 0.00016
293.1 K, 508.2 kPa	0.004171 ± 0.00016
297.8 K, 105.5 kPa	0.02283 ± 0.00016
297.89 K, 467.6 kPa	0.00468 ± 0.00016
298.08 K, 422.1 kPa	0.005296 ± 0.00016
302.7 K, 201.4 kPa	0.01191 ± 0.00016
302.91 K, 477.9 kPa	0.004681 ± 0.00016
303.09 K, 431.1 kPa	0.005297 ± 0.00016
303.11 K, 703.6 kPa	0.002968 ± 0.00016
303.12 K, 107.4 kPa	0.02284 ± 0.00016
303.12 K, 128.1 kPa	0.01916 ± 0.00016
303.12 K, 531.3 kPa	0.004173 ± 0.00016
308.1 K, 439.9 kPa	0.005298 ± 0.00016
308.11 K, 109.3 kPa	0.02284 ± 0.00016
308.11 K, 488.4 kPa	0.004682 ± 0.00016
313.09 K, 448.7 kPa	0.005299 ± 0.00016
313.11 K, 111.2 kPa	0.02285 ± 0.00016
313.11 K, 498.5 kPa	0.004683 ± 0.00016
313.11 K, 554 kPa	0.004174 ± 0.00016
313.11 K, 738.1 kPa	0.002969 ± 0.00016
313.12 K, 132.7 kPa	0.01917 ± 0.00016
313.12 K, 209 kPa	0.01192 ± 0.00016
318.09 K, 457.5 kPa	0.0053 ± 0.00016
318.09 K, 508.5 kPa	0.004684 ± 0.00016
318.1 K, 113 kPa	0.02285 ± 0.00016
318.11 K, 861.5 kPa	0.002534 ± 0.00016
323.07 K, 518.3 kPa	0.004685 ± 0.00016
323.08 K, 114.9 kPa	0.02286 ± 0.00016
323.08 K, 466.1 kPa	0.005302 ± 0.00016
323.09 K, 216.2 kPa	0.01192 ± 0.00016
323.09 K, 576.5 kPa	0.004176 ± 0.00016
323.09 K, 771.8 kPa	0.00297 ± 0.00016
323.1 K, 137.1 kPa	0.01918 ± 0.00016
328.06 K, 474.7 kPa	0.005303 ± 0.00016
328.06 K, 528.3 kPa	0.004686 ± 0.00016
328.06 K, 901.7 kPa	0.002535 ± 0.00016
328.07 K, 116.8 kPa	0.02286 ± 0.00016
333.04 K, 118.8 kPa	0.02286 ± 0.00016
333.04 K, 483.3 kPa	0.005304 ± 0.00016
333.04 K, 538.1 kPa	0.004687 ± 0.00016
333.05 K, 537.8 kPa	0.004687 ± 0.00016
333.05 K, 598.7 kPa	0.004178 ± 0.00016
333.05 K, 804.7 kPa	0.002972 ± 0.00016
333.06 K, 141.6 kPa	0.01919 ± 0.00016
333.06 K, 223.4 kPa	0.01192 ± 0.00016
338 K, 1538.8 kPa	0.001325 ± 0.00016
338.01 K, 491.8 kPa	0.005305 ± 0.00016
338.02 K, 941.5 kPa	0.002536 ± 0.00016
338.03 K, 120.6 kPa	0.02287 ± 0.00016
338.03 K, 547.6 kPa	0.004688 ± 0.00016
342.99 K, 146.1 kPa	0.0192 ± 0.00016
342.99 K, 500.3 kPa	0.005306 ± 0.00016
343 K, 122.5 kPa	0.02287 ± 0.00016
343 K, 230.6 kPa	0.01193 ± 0.00016
343.01 K, 557.3 kPa	0.004689 ± 0.00016
343.01 K, 620.6 kPa	0.00418 ± 0.00016
343.02 K, 837.4 kPa	0.002973 ± 0.00016
347.94 K, 1624.6 kPa	0.001325 ± 0.00016
347.94 K, 2217.8 kPa	0.000789 ± 0.00016
347.96 K, 508.8 kPa	0.005307 ± 0.00016
347.97 K, 124.3 kPa	0.02288 ± 0.00016
347.98 K, 980.2 kPa	0.002537 ± 0.00016
347.98 K, 2157.7 kPa	0.000833 ± 0.00016
347.99 K, 567 kPa	0.00469 ± 0.00016
352.91 K, 517.2 kPa	0.005309 ± 0.00016
352.91 K, 2303.2 kPa	0.000789 ± 0.00016
352.96 K, 126.1 kPa	0.02288 ± 0.00016
352.96 K, 576.6 kPa	0.004691 ± 0.00016
352.96 K, 642.4 kPa	0.004182 ± 0.00016
352.96 K, 869.4 kPa	0.002974 ± 0.00016
352.98 K, 150.6 kPa	0.0192 ± 0.00016
352.98 K, 237.7 kPa	0.01194 ± 0.00016
352.99 K, 2237.2 kPa	0.000833 ± 0.00016
357.86 K, 2385.6 kPa	0.000789 ± 0.00016
357.88 K, 525.6 kPa	0.00531 ± 0.00016
357.92 K, 128 kPa	0.02289 ± 0.00016
357.93 K, 586.2 kPa	0.004692 ± 0.00016
357.93 K, 1018.7 kPa	0.002538 ± 0.00016
357.95 K, 1709 kPa	0.001326 ± 0.00016
357.95 K, 2314.1 kPa	0.000833 ± 0.00016
362.83 K, 2467.7 kPa	0.000789 ± 0.00016
362.86 K, 534 kPa	0.005311 ± 0.00016
362.89 K, 129.8 kPa	0.02289 ± 0.00016
362.89 K, 2389.2 kPa	0.000833 ± 0.00016
362.92 K, 595.8 kPa	0.004693 ± 0.00016
362.92 K, 664 kPa	0.004184 ± 0.00016
362.92 K, 3067.5 kPa	0.000251
362.93 K, 155 kPa	0.01921 ± 0.00016
362.93 K, 901.2 kPa	0.002976 ± 0.00016
362.96 K, 244.9 kPa	0.01194 ± 0.00016
367.8 K, 2548.9 kPa	0.000789 ± 0.00016
367.83 K, 542.5 kPa	0.005312 ± 0.00016
367.87 K, 131.9 kPa	0.0229 ± 0.00016
367.88 K, 1057 kPa	0.002539 ± 0.00016
367.88 K, 2463.9 kPa	0.000834 ± 0.00016
367.89 K, 605.3 kPa	0.004694 ± 0.00016
367.92 K, 1791.4 kPa	0.001326 ± 0.00016
367.92 K, 3386.9 kPa	0.000251
372.8 K, 2629.5 kPa	0.000789 ± 0.00016
372.81 K, 550.9 kPa	0.005313 ± 0.00016
372.82 K, 133.8 kPa	0.0229 ± 0.00016
372.84 K, 932.4 kPa	0.002977 ± 0.00016
372.85 K, 1075.9 kPa	0.00254 ± 0.00016
372.85 K, 2537.2 kPa	0.000834 ± 0.00016
372.87 K, 614.8 kPa	0.004695 ± 0.00016
372.88 K, 159.4 kPa	0.01922 ± 0.00016
372.88 K, 252 kPa	0.01195 ± 0.00016
372.88 K, 685.4 kPa	0.004185 ± 0.00016
372.88 K, 3715.9 kPa	0.000251
